{
  "source": "patent US20060229358A1",
  "about": "“Pharmaceutical composition containing flavonoids” (Taipei Medical University, priority 2005, published 2006)",
  "key": {"[1]": {"system": "T1, PDE4", "T1 construct": "IC50 on phosphodiesterase isozyme 4; other: mean ± S.E.M. (n)", "assay": "Inhibition of cyclic nucleotide PDE activity (Assay I), PDE4, incl. Lineweaver-Burk analysis", "format": "biochemical, guinea pig", "settings": "for IC50: mean ± S.E.M. (n), read-out: IC50 on phosphodiesterase isozyme 4", "method": "Under a protocol approved by the Animal Care and Use Committee of Taipei Medical University, five male guinea pigs (Hartley), weighing 500-600 g, were sacrificed. The lungs (15 g) or hearts (4 g) taken therefrom were chopped into small pieces and homogenized with a glass/teflon homogenizer (Glas-Col, Terre Haute, Ind., USA) in 10 volumes of cold medium (pH 6.5) containing 20 mM Bis-Tris, 2 mM benzamidine, 2 mM EDTA, 50 mM sodium chloride, 0.1 mM phenylmethanesulfonyl fluoride (PMSF), and 1 mM dithiothreitol. At 4° C., the homogenate was centrifuged at 170 g for 15 min, and the supernatant thereof was then re-centrifuged at 40,000 g for 30 min. […] The column was washed with two bed volumes of homogenate buffer to remove unbound material, where the resin beads therein will bind with proteins, such as PDE proteins. Proteins bound to the Q-sepharose beads were eluted with various concentrations (0.23, 0.34, 0.44, 0.69, and 1.00 M) of NaCl dissolved in homogenate buffer (for each concentration, 40-50 mL elution buffer were applied) at a flow rate of 30 ml/h. Fractions (3 ml each) were collected, and ethylene glycol (EG) was added thereto until a final concentration of 30% (v/v). And then the samples were frozen at −70° C.\nThe activities of PDE1-5 in the homogenate were measured with a two-step procedure according to the method of Thompson and Appleman, using cAMP with [^3H]-cAMP or cGMP with [^3 H]-cGMP as substrates. The PDE enzyme prepared (25 μl) with 10 μl inhibitor or the solvents therefor was incubated for 30 min at 37° C. in a total assay buffer, where the final volume of the assay is amounted to 100 μl. In accordance with the features of the PDE isozymes, the assay buffer contains 50 mM Tris/HCl (pH 7.4), 3 mM MgCl2, 1 mM dithiothreitol, and 0.05% BSA, and optionally contains 1 uM cAMP with 0.2 μCi [^3H]-cAMP as a substrate alone or in the presence of 0.1 unit calmodulin with 10 μM CaCl2, or 5 μM cGMP, and 1 μM cGMP with 0.2 μCi [^3H]-cGMP as another substrate alone or in the presence of 0.1 unit calmodulin with 10 μM CaCl2.\nThe PDE enzyme and the inhibitors (or their solvent) therefor were mixed and incubated on ice for 30 min previously, and then mixed with the assay buffer. The assay was initiated by transferring the mixture to a water bath at 37° C. Following the other 30 min incubation, the reaction was stopped by transferring the reaction vessel to a bath of boiling water for 3 min. After cooling on ice, 20 μl of the 1 mg/ml of Crotalus atrox venom was added to the reaction mixture, and the mixture was incubated at 37° C. for 10 min. The uncatalyzed substrates, such as cAMP, [^3H]-cAMP, cGMP, or [^3H]-cGMP were removed by the addition of 500 μl of a 1-in-1 Tris-HCl (40 mM) buffer suspension of Dowex resin (1×8-200) with incubation on ice for 30 min, since the bindings of the cyclic nucleotides and the resin. Each tube was then centrifuged for 2 min at 6000 rpm, and 100 μl of the supernatant was removed and counted by a β-counter for calculating the enzyme (PDEs) activity.\nThe dissociation constant of inhibitor binding (Ki) value was determined from the equation of apparent Km as a function of the inhibitor concentration (insert in A and B, respectively). The slope of the equation is equal to the value of […] (where KM is Michaelis constant). The amounts of the total proteins are calculated based on the analytical method reported by Bradford. In FIGS. 1A and 1B, all enzyme activities are shown as nmole of substrate per mg of proteins per minute (nmole/mg/min) hydrolyzed.\nThe IC50 values of flavonoids and various reference drugs were calculated using non-linear regression analysis by the software SigmaPlot 7.0 (Sigma Chemical, St. Louis Mo., USA)."}, "[2]": {"system": "T2, PDE4L (LARBS)", "T2 construct": "other: considered equal to the PDE4 IC50", "assay": "Binding to peripheral LARBS (PDE4L)", "settings": "considered equal to the PDE4 IC50", "description": "[21]. […] In the brain, there are two binding sites for rolipram, which are high (HARBS) and low affinity rolipram binding sites (LARBS), while in the periphery of bronchi and lung there exist only LARBS. Generally, the anti-inflammatory and the bronchodilatory effects of rolipram are considered as its ability to bind with LARBS [21]."}, "[3]": {"biological_target": "T3, high affinity rolipram binding sites (HARBS, PDE4H)", "T3 construct": "IC50 for displacement of [3H]-rolipram from HARBS; other: 300 μM, guinea pig, preliminary experimental data; other: guinea pig whole brain particulates; over 300 μM not available due", "assay": "Binding to particulate HARBS of whole brain, displacement of [3H]-rolipram (Assay II)", "parameters": "species or system guinea pig", "settings": "for IC50: guinea pig whole brain particulates; for bound to HARBS of the whole brain cell particulates: 300 μM, guinea pig, preliminary experimental data", "method": "(§1) The binding experiments are carried on basis of the methods of Schneider et al. and Zhao et al. with a small modification. Under a protocol approved by the Animal Care and Use Committee of Taipei Medical University, five male guinea pigs (Hartley), weighing 500-600 g, were anesthetized. The whole brains taken therefrom were homogenized with in 10 volumes of cold medium (pH 6.5) containing 20 mM Bis-Tris, 2 mM benzamidine, 2 mM EDTA, 50 mM sodium chloride, 0.1 mM phenylmethanesulfonyl fluoride (PMSF), and 1 mM dithiothreitol. At 4° C., the homogenate was centrifuged at 170 g for 15 min for removing blood vessels and connective tissues, and the supernatant thereof was then re-centrifuged at 40,000 g for 30 min for separating the particulates from the cytosol of cells.\n(§2) After incubation, the reaction was stopped by transferring the reaction vessel to a bath of crashed ice. Then the reaction mixture was filtered through a punched glass fiber filter (Whatman GF/B) placed in a mini funnel, which was adopted to a 1.5 ml of Eppendorff's tube for collecting the filtrate in the mini centrifuge at 1000 rpm for 10 seconds. By the same way (centrifugation), it is further washed with 0.3 ml reaction buffer each for three times. The Whatman GF/B filter was mixed with 2 ml of cocktail and counted by the β-scintillation counter (Backman, Fullerton, Calif., USA) for counting the radioactivity thereof."}, "[4]": {"system": "high affinity rolipram binding sites (HARBS, PDE4H)", "assay": "Binding to particulate HARBS of whole brain, displacement of [3H]-rolipram (Assay II)", "parameters": "species or system guinea pig", "settings": "HARBS 50% binding concentration over PDE4 IC50", "method": "as §1, §2"}, "[5]": {"settings": "2 nM [3H]-rolipram, FIG. 2, read-out: IC50 for displacement of [3H]-rolipram from HARBS"}, "[6]": {"settings": "over 300 μM not available due to solubility, read-out: concentration for having 50% of HARBS bound"}},
  "note": "Where two headings read alike, the source gives them in different places.",
  "data": [
    {"molecule": "O=C1CC(c2ccc(O)c(O)c2)Oc2cc(O)cc(O)c21", "note": "(stereo not shown) [Eriodictyol]", "values": [
      {"measurement": "IC50", "setting": "[1]", "result": "> 100", "unit": "µM"}
    ]},
    {"molecule": "O=c1cc(-c2ccc(O)c(O)c2)oc2cc(O[C@@H]3O[C@H](CO)[C@@H](O)[C@H](O)[C@H]3O)cc(O)c12", "note": "[Luteolin-7-glucoside]", "values": [
      {"measurement": "IC50", "setting": "[1]", "result": "43 ± 5.3", "unit": "µM"}
    ]},
    {"molecule": "O=c1cc(-c2ccc(O)c(O)c2)oc2cc(O)cc(O)c12", "note": "[Luteolin]", "values": [
      {"measurement": "IC50", "setting": "[1]", "result": "19.1 ± 2.4", "unit": "µM"}
    ]},
    {"molecule": "O=c1cc(-c2ccccc2)oc2cc(O)cc(O)c12", "note": "[Chrysin]", "values": [
      {"measurement": "IC50", "setting": "[1]", "result": "> 100", "unit": "µM"}
    ]},
    {"molecule": "COc1ccc(C2CC(=O)c3c(O)cc(O)cc3O2)cc1O", "note": "(stereo not shown) [Hesperetin]", "values": [
      {"measurement": "concentration for binding to an half of the LARBS", "setting": "[2]", "result": 28.2, "unit": "µM"},
      {"measurement": "IC50", "setting": "[3]; [5]", "result": "> 300", "unit": "µM"},
      {"measurement": "bound to HARBS of the whole brain cell particulates", "setting": "[3]", "result": 17.5, "unit": "%"},
      {"measurement": "IC50", "setting": "[3]; [6]", "result": "> 300", "unit": "µM"},
      {"measurement": "mode of inhibition of PDE4 enzyme activity", "setting": "[1]; Lineweaver-Burk plot, cAMP substrate, FIG. 1A", "result": "competitively inhibits"}
    ]},
    {"molecule": "O=c1c(-c2ccc(O)cc2)coc2cc(O)ccc12", "note": "[Daidzein]", "values": [
      {"measurement": "IC50", "setting": "[1]", "result": "> 100", "unit": "µM"}
    ]},
    {"molecule": "COc1cc(O)c2c(=O)c(-c3ccc(O)cc3)coc2c1", "note": "[Prunetin]", "values": [
      {"measurement": "concentration for binding to an half of the LARBS", "setting": "[2]", "result": 61.9, "unit": "µM"},
      {"measurement": "IC50", "setting": "[3]; [5]", "result": "> 300", "unit": "µM"},
      {"measurement": "bound to HARBS of the whole brain cell particulates", "setting": "[3]", "result": 24.2, "unit": "%"},
      {"measurement": "IC50", "setting": "[3]; [6]", "result": "> 300", "unit": "µM"},
      {"measurement": "PDE4H/PDE4L ratio", "setting": "[4]", "result": "greater than 5"}
    ]},
    {"molecule": "O=c1cc(-c2ccc(O)cc2)oc2cc(O)cc(O)c12", "note": "[Apigenin]", "values": [
      {"measurement": "IC50", "setting": "[1]", "result": "> 100", "unit": "µM"}
    ]}
  ]
}
